Experiments:
Type in all cases: ADME, organism-based
[1] = Bioavailability in […] rat; settings: in vivo
[2] = Clearance in iv dosed rat; settings: in vivo
[3] = Cmax in squirrel monkey at 10 mg/kg; parameters: dose 10 mg/kg; settings: saimiri, in vivo
[4] = Cmax in squirrel monkey at 0.4 mg/kg; parameters: dose 0.4 mg/kg; settings: saimiri, in vivo
[5] = Cmax in squirrel monkey at 2 mg/kg; parameters: dose 2 mg/kg; settings: saimiri, in vivo

**Q.** For `CC(C)(c1cc(-c2cccc(CC(F)(c3ccc(S(C)(=O)=O)cc3)C(O)(C3CC3)C3CC3)c2)c2ncccc2c1)S(C)(=O)=O.CCl` (centres undefined), which bioavailability [1] is on record?
**A.** 99%

**Q.** What about the clearance [2] of the same compound?
**A.** 8 mL/min/kg

**Q.** With `CC(C)(O)C(Cc1cccc(-c2cc(C(C)(C)S(C)(=O)=O)cc3cccnc23)c1)c1ccc(S(C)(=O)=O)cc1` (centres undefined) as the compound, how does the bioavailability [1] read?
**A.** 21%

**Q.** And the clearance [2]?
**A.** 50 mL/min/kg

**Q.** For `Cc1noc(/C(=C/c2cccc(-c3cc(C(C)(C)S(C)(=O)=O)cc4cccnc34)c2)c2ccc(S(C)(=O)=O)cc2)n1`, which bioavailability [1] is on record?
**A.** 100%

**Q.** And the clearance [2]?
**A.** 7 mL/min/kg

**Q.** And the Cmax [3]?
**A.** 3800 nM

**Q.** Which results are given for `CC(C)(O)C(F)(Cc1cccc(-c2cc(C(C)(C)S(C)(=O)=O)cc3cccnc23)c1)c1ccc(S(C)(=O)=O)cc1` (centres undefined)?
**A.** bioavailability [1]: 84%; clearance [2]: 17 mL/min/kg

**Q.** Which bioavailability [1] does the source give for `CC(C)(c1cc(-c2cccc(CC(F)(c3ccc(S(C)(=O)=O)cc3)S(=O)(=O)C3CC3)c2)c2ncccc2c1)S(C)(=O)=O.Cl` (single isomer, unassigned) here?
**A.** 36%

**Q.** And the clearance [2]?
**A.** 9 mL/min/kg

**Q.** Which results are given for `CC(C)(c1cc(-c2cccc(CC(F)(c3ccc(S(C)(=O)=O)cc3)C(O)(C3CC3)C3CC3)c2)c2ncccc2c1)S(C)(=O)=O` (single isomer, unassigned; Enantio B)?
**A.** bioavailability [1]: 99%; Cmax [4]: 100 nM; clearance [2]: 38 mL/min/kg

**Q.** With `CC(C)(c1cc(-c2cccc(CC(F)(c3ccc(S(C)(=O)=O)cc3)S(=O)(=O)C3CC3)c2)c2ncccc2c1)S(C)(=O)=O` (single isomer, unassigned; Enantio B) as the compound, how does the bioavailability [1] read?
**A.** 99%

**Q.** And the Cmax [5]?
**A.** 1900 nM

**Q.** And the clearance [2]?
**A.** 3 mL/min/kg

**Q.** Which results are given for `COP(=O)(OC)C(Cc1cccc(-c2cc(C(C)(C)S(C)(=O)=O)cc3cccnc23)c1)c1ccc(S(C)(=O)=O)cc1` (centres undefined)?
**A.** bioavailability [1]: 3%; clearance [2]: 48 mL/min/kg

**Q.** With `CC(C)(c1cc(-c2cccc(CC(F)(c3ccc(S(C)(=O)=O)cc3)S(C)(=O)=O)c2)c2ncccc2c1)S(C)(=O)=O` (centres undefined) as the compound, how does the bioavailability [1] read?
**A.** 53%

**Q.** What about the clearance [2] of the same compound?
**A.** 9 mL/min/kg

**Q.** For `CC(C)(c1cc(-c2cccc(CC(F)(c3ccc(S(C)(=O)=O)cc3)C(O)(C3CC3)C3CC3)c2)c2ncccc2c1)S(C)(=O)=O.Cl` (single isomer, unassigned), which bioavailability [1] is on record?
**A.** 69%

**Q.** What about the clearance [2] of the same compound?
**A.** 11 mL/min/kg

**Q.** For `CC(C)(c1cc(-c2cccc(CC(c3ccc(S(C)(=O)=O)cc3)S(C)(=O)=O)c2)c2ncccc2c1)S(C)(=O)=O` (centres undefined), which bioavailability [1] is on record?
**A.** 1%

**Q.** And the clearance [2]?
**A.** 76 mL/min/kg

**Q.** What does the source list for `COP(=O)(OC)C(F)(Cc1cccc(-c2cc(C(C)(C)S(C)(=O)=O)cc3cccnc23)c1)c1ccc(S(C)(=O)=O)cc1` (centres undefined)?
**A.** bioavailability [1]: 51%; clearance [2]: 177 mL/min/kg

**Q.** With `CC(C)(c1cc(-c2cccc(CC(CO)c3ccc(S(C)(=O)=O)cc3)c2)c2ncccc2c1)S(C)(=O)=O` (centres undefined) as the compound, how does the bioavailability [1] read?
**A.** 9%

**Q.** What about the clearance [2] of the same compound?
**A.** 51 mL/min/kg

Reference: ChEMBL document CHEMBL1155332 (Bioorg Med Chem Lett, 2009)
